Assay [1] relates to PC 12 cells. The experiment in a line: Test 1: cytoprotecting effect on PC 12 cells submitted to a cytotoxic UV-B stress (LDH activity in culture medium). The format is cell-based, murine. The note with it: UV-B 285 nm, 500 mJ/cm^2, average of six measures. An excerpt:
(§1) The cell model chosen by the applicant in all its in vitro experimentations was a pheochromocytomal cell line with murine origin, called “PC 12” and commonly accepted for neurobiological and neurochemical studies on nervous cells (Greene L. A. and al., Proc. Natl. Acad. Sci. USA (1976), vol.73, pp.2424–2428), in particular on peripheral neurones which innervate skin (Keilbaugh S. A., Biochem. Pharm. (1997), vol.53, pp.1485–1492).
(§2) The PC 12 line was used after differentiation according to a method described in the literature (Greene L. A. et al. in Culturing Nerve Cells (1991), MIT Press, Cambridge, Mass., pp.207–225).
Test 1: cytoprotecting effect of the alpha-L-glutamyltryptamine, L-methionyltryptamine and L-tryptophantryptamine on PC 12 cells submitted to a UV-B stress. Comparison with a reference antioxidant. A cytotoxic UV-B stress is applied on the nervous cell model (285 nm±5; 500 mJ/cm^2), in the absence then in the presence of active ingredient, successively the alpha-L-glutamyltryptamine (Glu-Tryp), L-methionyltryptamine (Met-Tryp) and L-tryptophantryptamine (Trp-Tryp).
The cell death is then evaluated by the measure of lactico-dehydrogenase activity (LDH) in the culture medium. This activity is proportional to the cell lysis which follows the cell death.
The results are expressed in % of protection and are given by the ratio of LDH activity according to the following equation: […]
The results are compared to the ones obtained with a reference antioxidant which is vitamin E (vit.E).
Validity of the test is checked by the measure of LDH activity in the culture medium of non stressed cells (negative check). Values listed in the tables hereafter are average values obtained from six measures.

Assay [2] relates to PC 12 cells. The experiment in a line: Test 2: slowdown of the neurodegeneration process of PC 12 submitted to a deprivation of serum (LDH release). The class given is cell-based, murine. Conditions: serum deprivation of nine days, average of six measures.
Excerpt: as §1, §2
Test 2: anti-aging effect of the alpha-L-glutamyltryptamine, L-methionyltryptamine and L-tryptophantryptamine with the slowdown of the neurodegeneration process of PC 12 submitted to a deprivation of serum.
A deprivation of serum is applied to PC 12 cells in order to imitate the aging effects. The neurodegeneration process is followed, in the absence then in the presence of active ingredient, successively the alpha-L-glutamyltryptamine (Glu-Tryp), L-methionyltryptamine (Met-Tryp) and L-tryptophantryptamine (Trp-Tryp), by a kinetic measure of the release in the culture medium of lactico-dehydrogenase enzyme (LDH).
The results are expressed in relative survival rate given by the LDH activity ratio according to the following equation: […]
The values listed in the tables hereafter are average values obtained from six measures after a serum deprivation of nine days.
For orientation: LDH in the medium is a marker of cell lysis.

Assay [3] deals with PC 12 cells. Description: Test 3: anti-inflammatory effect on PC 12 cells submitted to a UV-B pro-inflammatory stress (IL-6 production). The class given is cell-based, murine. Conditions: UV-B 285 nm, 150 mJ/cm^2, non treated irradiated control 400, non irradiated control 0.
Excerpt: as §1, §2
Test 3: anti-inflammatory effect of the alpha-L-glutamyltryptamine, L-methionyltryptamine and L-tryptophantryptamine on PC 12 cells submitted to a pro-inflammatory stress. Comparison with two controls (PC 12): the first one is non stressed, the second one is stressed but non treated
A UV-B pro-inflammatory stress is applied on PC 12 cells (285 nm±5; 150 mJ/cm^2), in the absence then in the presence of active ingredient, successively the alpha-L-glutamyltryptamine (Glu-Tryp), L-methionyltryptamine (Met-Tryp) and L-tryptophantryptamine (Trp-Tryp).
The neurogenic inflammatory response is evaluated by the measure of the rate of pro-inflammatory interleukine-6 (IL-6) which are produced by the PC 12 cells.

For assay [4], the system named is immune monocyte cells, the THP-1 line. The experiment in a line: Test 4: stimulation of the neuro immuno-cutaneous system (IL-1β produced by THP-1 monocytes given supernatants of treated PC 12 cells). The class given is cell-based. The note with it: supernatant added to THP-1, non treated supernatant control 40. Here is the method: Test 4: stimulation of the neuro immuno-cutaneous system with the alpha-L-glutamyltryptamine, L-methionyltryptamine or L-tryptophantryptamine.
PC 12 cells are differentiated according to a special protocol to avoid artefacts. After a brief deprivation of growth and differentiation factors, PC 12 are incubated in different concentrations of pseudodipeptides, successively the alpha-L-glutamyltryptamine (Glu-Tryp), L-methionyltryptamine (Met-Tryp) and L-tryptophantryptamine (Trp-Tryp).
After a five days-incubation, the cellular supernatants containing neuromediators and miscellaneous secretions are sampled then introduced in the culture of immune monocyte cells, the THP-1 line.
The effect on the neuro immuno-cutaneous system is observed by measuring the rate of IL-1β interleukines produced by the monocyte cells in response to the addition of supernatants coming from the culture of PC 12 cells.
The results are compared to two controls: the first one with immune cells without supernatant, the second one containing immune cells with supernatant but non treated.

The mark [5] stands for this setting: 0.05 mM on PC 12, five days-incubation.
Setting [6] is: 0.1 mM on PC 12, five days-incubation.

This note sets out measurements from patent US7094796B2, “Coupling product between tryptamine and an alpha-amino acid, process for its preparation as well as its application in the neurocosmetic field” (Exsymol S.A.M., priority 2002, dated 2006).

`CSCC[C@H](N)C(=O)NCCc1c[nH]c2ccccc12` [Met-Tryp, L-methionyltryptamine]: the “% of protection” value worked out at 20% in the assay on PC 12 cells [1] (0.05 mM); 32% with PC 12 cells [1] (0.1 mM); 42% in the assay on PC 12 cells [1] (0.48 mM); 53% in the assay on PC 12 cells [1] (0.85 mM); 65% in the assay with PC 12 cells [1] (1.91 mM). The “improvement of the survival time (%)” value is given as “+12%” in the assay with PC 12 cells [2] (0.1 mM), “+15%” with PC 12 cells [2] (0.48 mM) and “+28%” in the assay with PC 12 cells [2] (0.85 mM). The “produced IL-6 rate” value was determined as 290 pg/mL in the assay with PC 12 cells [3] (0.1 mM), 210 pg/mL with PC 12 cells [3] (0.48 mM) and 85 pg/mL with PC 12 cells [3] (0.85 mM). Further, the “produced IL-1β rate” value in assay [4] (setting [5]) came to 42 pg/mL; in assay [4] (setting [6]), 55 pg/mL; in assay [4] (0.48 mM on PC 12, five days-incubation), 85 pg/mL.
On to `N[C@@H](Cc1c[nH]c2ccccc12)C(=O)NCCc1c[nH]c2ccccc12` [Trp-Tryp, L-tryptophantryptamine], for which the “% of protection” value in the assay with PC 12 cells [1] (0.05 mM) is on record as 22%; with PC 12 cells [1] (0.1 mM), 35%; in the assay with PC 12 cells [1] (0.45 mM), 45%; with PC 12 cells [1] (0.85 mM), 58%; with PC 12 cells [1] (1.80 mM), 66%. Also, the “improvement of the survival time (%)” value in the assay on PC 12 cells [2] (0.1 mM) is given as “+17%”; in the assay with PC 12 cells [2] (0.45 mM) it was “+20%”; in the assay with PC 12 cells [2] (0.85 mM), “+30%”. Moreover, the “produced IL-6 rate” value in the assay on PC 12 cells [3] (0.1 mM) turned out to be 305 pg/mL; with PC 12 cells [3] (0.45 mM), 210 pg/mL; in the assay with PC 12 cells [3] (0.85 mM) it was 100 pg/mL. Besides, the “produced IL-1β rate” value in assay [4] (setting [5]) was 44 pg/mL; in assay [4] (setting [6]), 60 pg/mL; in assay [4] (0.45 mM on PC 12, five days-incubation), 92 pg/mL.
vitamin E [Vit. E, reference compound]: in the assay with PC 12 cells [1] (2 mM), the “% of protection” value turned out to be 34%.
